Test results as given in publication PMC9551036, “A selective and orally bioavailable VHL-recruiting PROTAC achieves SMARCA2 degradation in vivo” (Nature Communications, 2022).
Where “and” joins values, the source holds several entries; their conditions need not be identical. Equal entries are not always repeated. Where two headings read alike, the source gives them in different places.

Assays:
Format in all cases: cell-based, human
[1] = Cell viability assay (CellTiter Glo) in NCI-H1568; settings: human, NCI-H1568 cells, NCI-H1568; log10 conc -5.90309 mol/l;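 note: percent of DMSO-treated control cells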
Procedure, shortened: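 NCI-H1568 cells, 500–2000 per well, were plated in 180–200 µl of medium in white 96-well plates with clear bottoms (Corning or Perkin Elmer). One day later a digital dispenser added the compounds, and a T0 reference sample was read. Viability was then determined by luminescence with CellTiter Glo or CellTiter Glo 2.0 (Promega).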

[2] = Cell viability assay (CellTiter Glo) in a panel of cell lines; settings: for EC50: Homo sapiens; for viability at 1 µM / viability at 0.316 µM / viability at 1.25 µM / viability at 0.313 µM / viability at 0.1 µM: human; for viability at 1 µM: log10 conc -6 mol/l; for viability at 0.316 µM: log10 conc -6.50031 mol/l; for viability at 1.25 µM: log10 conc -5.90309 mol/l; for viability at 0.313 µM: log10 conc -6.50446 mol/l; for viability at 0.1 µM: log10 conc -7 mol/l;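 for % Viability: percent of DMSO-treated control cells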
Experimental: (§1) 500–2000 cells were seeded in white, clear bottom 96-well plates (Corning or Perkin Elmer) in 180–200 µl medium per well. The next day, compounds were added using a digital dispenser and a T0 sample was measured for reference. Cells were incubated for 144–192 h, and viability (luminescence) was measured using CellTiter Glo or CellTiter Glo 2.0 (Promega) according to manufacturer’s instructions after equilibrating cells and reagents at room temperature and 10–20 min incubation time while shaking.

[3] = test system: panel of cell lines (A549, HCC-364, HCC-515, HCC4006, KYSE-30, LU99, LXFA_629L, LXFA_923L, LXFL_529L, LXFL_1121L, MP38, NCI-H23, NCI-H1355, OV-90, SK-MEL-5 …); test: as above
Experimental: as §1

Which results are given for `Cc1ncsc1-c1ccc(C(CCC(C)CCN2CCC(c3ccc4c(c3)n(C3CCCC3)c3nc(=O)c5c(Br)cccc5n43)CC2)NC(=O)C2CC(O)CN2C(=O)C(NC(=O)C2(F)CC2)C(C)(C)C)cc1` (stereo not drawn) [ACBI2]?
viability at 1.25 µM [1]: 0.898%; EC50 ([2]; A549, A549, read-out: LogEC50 (viability) (converted)): 29.3 nM; EC50 ([2]; A549, A549, values derived from curves in Extended Fig 4b, read-out: EC50 mean): 29.3 nM; EC50 ([2]; HCC364, HCC-364, read-out: LogEC50 (viability) (converted)): 70.8 nM; EC50 ([2]; HCC364, HCC-364, values derived from curves in Extended Fig 4b, read-out: EC50 mean): 70.8 nM; EC50 ([2]; HCC515, HCC-515, read-out: LogEC50 (viability) (converted)): 2.11 nM; EC50 ([2]; HCC515, HCC-515, values derived from curves in Extended Fig 4b, read-out: EC50 mean): 2.11 nM; EC50 ([2]; HCC4006, HCC4006, read-out: LogEC50 (viability) (converted)): 191 nM; EC50 ([2]; HCC4006, HCC4006, values derived from curves in Extended Fig 4b, read-out: EC50 mean): 191 nM; EC50 ([2]; LXFA 629L, LXFA_629L, read-out: LogEC50 (viability) (converted)): 16.5 nM; EC50 ([2]; LXFA 629L, LXFA_629L, values derived from curves in Extended Fig 4b, read-out: EC50 mean): 16.5 nM; EC50 ([2]; LXFA_923L, read-out: LogEC50 (viability) (converted)): 4.36 nM; EC50 ([2]; LXFA_923L, values derived from curves in Extended Fig 4b, read-out: EC50 mean): 4.35 nM; EC50 ([2]; LXFL 529L, LXFL_529L, read-out: LogEC50 (viability) (converted)): 0.382 nM; EC50 ([2]; LXFL 529L, LXFL_529L, values derived from curves in Extended Fig 4b, read-out: EC50 mean): 0.382 nM; EC50 ([2]; Lu-99, LU99, read-out: LogEC50 (viability) (converted)): 132 nM; EC50 ([2]; Lu-99, LU99, values derived from curves in Extended Fig 4b, read-out: EC50 mean): 132 nM; EC50 ([2]; MP38, read-out: LogEC50 (viability) (converted)): 8.75 nM; EC50 ([2]; MP38, values derived from curves in Extended Fig 4b, read-out: EC50 mean): 8.75 nM; EC50 ([2]; NCI-H1355, NCI-H1355, read-out: LogEC50 (viability) (converted)): 15.6 nM; EC50 ([2]; NCI-H1355, NCI-H1355, values derived from curves in Extended Fig 4b, read-out: EC50 mean): 15.6 nM; EC50 ([2]; OV-90, OV-90, read-out: LogEC50 (viability) (converted)): 67.5 nM; EC50 ([2]; OV-90, OV-90, values derived from curves in Extended Fig 4b, read-out: EC50 mean): 67.5 nM; EC50 ([2]; SK-MEL-5, SK-MEL-5, read-out: LogEC50 (viability) (converted)): 2.82 nM; EC50 ([2]; SK-MEL-5, SK-MEL-5, values derived from curves in Extended Fig 4b, read-out: EC50 mean): 2.82 nM; viability at 1 µM ([2]; A549 cells, A549): 44%; viability at 0.316 µM ([2]; A549 cells, A549): 43.1%; viability at 1.25 µM ([2]; HCC4006 cells, HCC4006): 42.2%; viability at 0.313 µM ([2]; HCC4006 cells, HCC4006): 53.4%; viability at 1.25 µM ([2]; HCC-364 cells, HCC-364): 14.6%; viability at 0.313 µM ([2]; HCC-364 cells, HCC-364): 20.4%; viability at 1 µM ([2]; HCC-515 cells, HCC-515): 15%; viability at 0.316 µM ([2]; HCC-515 cells, HCC-515): 22.4%; viability at 1.25 µM ([2]; KYSE-30 cells, KYSE-30): 91.1%; viability at 0.313 µM ([2]; KYSE-30 cells, KYSE-30): 92.8%; viability at 0.313 µM ([2]; LU99 cells, LU99): 30.1%; viability at 1 µM ([2]; LXFA 629L cells, LXFA_629L): 14.9%; viability at 0.316 µM ([2]; LXFA 629L cells, LXFA_629L): 24.7%; viability at 1 µM ([2]; LXFA 923L cells, LXFA_923L): 13.6%; viability at 0.316 µM ([2]; LXFA 923L cells, LXFA_923L): 21.4%; viability at 1 µM ([2]; LXFL 529L cells, LXFL_529L): 4.39%; viability at 0.316 µM ([2]; LXFL 529L cells, LXFL_529L): 6.27%; viability at 0.1 µM ([2]; LXFL 529L cells, LXFL_529L): 9.52%; viability at 1 µM ([2]; LXFL 1121L cells, LXFL_1121L): 90.4%; viability at 0.316 µM ([2]; LXFL 1121L cells, LXFL_1121L): 92.1%; viability at 0.1 µM ([2]; LXFL 1121L cells, LXFL_1121L): 89.5%; viability at 1 µM ([2]; MP38 cells, MP38): 1.87%; viability at 0.316 µM ([2]; MP38 cells, MP38): 0.609%; viability at 0.1 µM ([2]; MP38 cells, MP38): 1.6%; viability at 1.25 µM ([2]; NCI-H23 cells, NCI-H23): 75.3%; viability at 0.313 µM ([2]; NCI-H23 cells, NCI-H23): 76.1%; viability at 1.25 µM ([2]; OV-90 cells, OV-90): 35.5%; viability at 0.313 µM ([2]; OV-90 cells, OV-90): 45.5%; viability at 1.25 µM ([2]; SK-MEL-5 cells, SK-MEL-5): 1.81%; viability at 0.313 µM ([2]; SK-MEL-5 cells, SK-MEL-5): 2.34%; viability at 1.25 µM ([2]; TOV-112D cells, TOV-112D): 91.7%; viability at 0.313 µM ([2]; TOV-112D cells, TOV-112D): 103%; HillSlope (viability) ([3]; A549): -0.487; % Viability ([3]; A549, log10 conc -7 mol/l): 47.919% and 42.1211%; % Viability ([3]; A549, log10 conc -7.50031 mol/l): 60.413% and 52.9594%; % Viability ([3]; A549, log10 conc -8 mol/l): 70.4787% and 68.1265%; % Viability ([3]; A549, log10 conc -8.50031 mol/l): 100.959% and 102.653%; HillSlope (viability) ([3]; HCC4006): -2.51; % Viability ([3]; HCC4006, log10 conc -7.10735 mol/l): 106.752% and 106.118%; % Viability ([3]; HCC4006, log10 conc -8.31158 mol/l): 118.541% and 111.324%; HillSlope (viability) ([3]; HCC-364): -2.992; % Viability ([3]; HCC-364, log10 conc -7.10735 mol/l): 39.6895% and 65.8316%; % Viability ([3]; HCC-364, log10 conc -8.31158 mol/l): 101.18% and 100.543%; HillSlope (viability) ([3]; HCC-515): -0.931; % Viability ([3]; HCC-515, log10 conc -7 mol/l): 21.3218% and 22.1794%; % Viability ([3]; HCC-515, log10 conc -7.50031 mol/l): 21.1243% and 26.9825%; % Viability ([3]; HCC-515, log10 conc -8 mol/l): 34.5235% and 34.7052%; % Viability ([3]; HCC-515, log10 conc -8.50031 mol/l): 51.5226% and 47.9218%; HillSlope (viability) ([3]; KYSE-30): -1.122; % Viability ([3]; KYSE-30, log10 conc -7.10735 mol/l): 99.6818% and 96.2107%; % Viability ([3]; KYSE-30, log10 conc -8.31158 mol/l): 107.107% and 103.099%; HillSlope (viability) ([3]; LU99): -1.519; % Viability ([3]; LU99, log10 conc -7.10735 mol/l): 81.59% and 77.7555%; % Viability ([3]; LU99, log10 conc -8.31158 mol/l): 123.387% and 114.143%; HillSlope (viability) ([3]; LXFA_629L): -0.7355; % Viability ([3]; LXFA_629L, log10 conc -7 mol/l): 28.2712% and 27.4037%; % Viability ([3]; LXFA_629L, log10 conc -7.50031 mol/l): 41.2713% and 34.5184%; % Viability ([3]; LXFA_629L, log10 conc -8 mol/l): 57.9035% and 54.0045%; % Viability ([3]; LXFA_629L, log10 conc -8.50031 mol/l): 89.2294% and 82.1746%; HillSlope (viability) ([3]; LXFA_923L): -0.4788; % Viability ([3]; LXFA_923L, log10 conc -7.50031 mol/l): 31.729% and 41.6954%; % Viability ([3]; LXFA_923L, log10 conc -8 mol/l): 41.6215% and 47.8343%; % Viability ([3]; LXFA_923L, log10 conc -8.50031 mol/l): 63.1043% and 68.2132%; HillSlope (viability) ([3]; LXFL_529L): -0.4813; % Viability ([3]; LXFL_529L, log10 conc -7.50031 mol/l): 17.7092% and 18.3663%; % Viability ([3]; LXFL_529L, log10 conc -8 mol/l): 23.2341% and 22.4794%; % Viability ([3]; LXFL_529L, log10 conc -8.50031 mol/l): 25.5623% and 26.9316%; HillSlope (viability) ([3]; LXFL_1121L): -1.483; % Viability ([3]; LXFL_1121L, log10 conc -7.50031 mol/l): 92.1257% and 100.242%; % Viability ([3]; LXFL_1121L, log10 conc -8 mol/l): 96.5968% and 112.339%; % Viability ([3]; LXFL_1121L, log10 conc -8.50031 mol/l): 103.275% and 116.726%; HillSlope (viability) ([3]; MP38): -1.603; % Viability ([3]; MP38, log10 conc -7.50031 mol/l): 10.4737% and 10.5264%; % Viability ([3]; MP38, log10 conc -8 mol/l): 48.5822% and 44.1126%; % Viability ([3]; MP38, log10 conc -8.50031 mol/l): 84.8854% and 80.6261%; HillSlope (viability) ([3]; NCI-H23): -0.9596; % Viability ([3]; NCI-H23, log10 conc -7.10735 mol/l): 77.4555% and 94.2831%; % Viability ([3]; NCI-H23, log10 conc -8.31158 mol/l): 93.614% and 103.354%; HillSlope (viability) ([3]; NCI-H1355): -1.475; % Viability ([3]; NCI-H1355, log10 conc -8.31158 mol/l): 91.2593% and 85.8715%; HillSlope (viability) ([3]; OV-90): -0.9956; % Viability ([3]; OV-90, log10 conc -7.10735 mol/l): 57.2489% and 75.2258%; % Viability ([3]; OV-90, log10 conc -8.31158 mol/l): 97.3183% and 109.838%; HillSlope (viability) ([3]; SK-MEL-5): -1.006; % Viability ([3]; SK-MEL-5, log10 conc -7.10735 mol/l): 3.91% and 3.091%; % Viability ([3]; SK-MEL-5, log10 conc -8.31158 mol/l): 29.6092% and 31.0459%; HillSlope (viability) ([3]; TOV-112D): -1.255; % Viability ([3]; TOV-112D, log10 conc -7.10735 mol/l): 105.246% and 100.431%; % Viability ([3]; TOV-112D, log10 conc -8.31158 mol/l): 103.581% and 98.4682%
